Where “and” joins values, the source holds several entries; their conditions need not be identical. Identical values can stand only once.
Biological target: T1, CETP (Homo sapiens, UniProt P11597)
T1 construct: from tissue; host or cells: human plasma from normal volunteers
T1 sequence (P11597 18-493): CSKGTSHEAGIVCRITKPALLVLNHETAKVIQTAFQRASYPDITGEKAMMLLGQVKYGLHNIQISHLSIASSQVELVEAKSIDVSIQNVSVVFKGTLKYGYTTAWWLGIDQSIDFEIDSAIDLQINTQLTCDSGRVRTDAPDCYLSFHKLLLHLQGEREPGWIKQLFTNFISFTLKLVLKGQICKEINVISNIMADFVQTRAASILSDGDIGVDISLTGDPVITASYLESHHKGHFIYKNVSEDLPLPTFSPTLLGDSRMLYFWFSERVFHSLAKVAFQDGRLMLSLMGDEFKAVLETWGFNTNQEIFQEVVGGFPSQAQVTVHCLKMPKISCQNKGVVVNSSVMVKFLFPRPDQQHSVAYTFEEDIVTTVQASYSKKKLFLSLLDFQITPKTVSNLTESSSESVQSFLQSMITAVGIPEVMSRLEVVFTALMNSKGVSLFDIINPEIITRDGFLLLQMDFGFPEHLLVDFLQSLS
Test: CETP in vitro assay ([3H]CE-HDL transfer, Amersham kit TRKQ7005; modified protocol in human plasma)
Assay type: biochemical
Details: multiple values = multiple measurements; for inhibition at 1 µM / % Inhibition @ 1 μM: 1 μM compound
Procedure: The CETP inhibitory activity of the compounds was determined using a commercially available kit from Amersham Biosciences (Catalog #TRKQ7005).
For the measurement of inhibitory activity in human plasma, a modified protocol (Connolly, D. T. et al., Biochemistry, 39 13870-13879, 2000) was used. Briefly, 80 μl of human plasma (obtained from normal volunteers), approximately 25 μg/ml (200) of [^3H]CE-HDL (Amersham Biosciences from kit TRKQ7005) and 1 μl of compound dissolved in DMSO was incubated for at least 4 hrs at 37° C. and non-specific transfer was determined by incubating a corresponding plate at 4° C. (blank). After the incubation period, 100 of a solution of 1% Dextralip 50/0.5M MgCl2, pH 7.4 was added, vortexed and incubated at room temperature for 10 min. The plate was then centrifuged for 30 min at 10° C. at 3000 rpm in a Sorvall RT6000B centrifuge. Fifty microliters of the supernatant was transferred to a Picoplate (Packard) containing 100 μl of Microscint 40 (Perkin Elmer) and mixed for 30 min using a plate mixer. The radioactivity was counted using a TopCount (Perkin Elmer) and the % control was determined in the samples using the following formula: % transfer relative to vehicle controls (% control)=[cpm blank-cpm test]/cpm blank/cpm control]×100. IC50s were calculated from plots of the % control versus compound concentration.
A variety of example compounds have been made and tested, with a range of in vitro results. Below, in Table 2, are representative compounds and the corresponding data; in some cases, where multiple IC50's are shown, multiple measurements were taken. Naturally, different compounds in Formula (I), (Ia), (Ib) and (Ic) may have not activities identical to any one compound below.

Row | Structure (SMILES) | inhibition at 1 µM [%] | % Inhibition @ 1 μM [%] | IC50
1 | CCOC(=O)N1c2cccc(-c3cccc(OC(F)(F)F)c3)c2OCC1c1cccc(OC(F)(F)C(F)F)c1 (stereo not drawn) [Compound 21, 3-[3-(1,1,2,2-Tetrafluoro-ethoxy)-phenyl]-8-(3-trifluoromethoxy-phenyl)-2,3-dihydro-benzo[1,4]oxazine-4-carboxylic acid ethyl ester] | 2 |  | 
2 | CC(C)(C)[Si](C)(C)OCCN1c2cccc(-c3cccc(OC(F)(F)F)c3)c2OCC1c1cccc(OC(F)(F)C(F)F)c1 (stereo not drawn) [Compound 22, 4-[2-(tert-Butyl-dimethyl-silanyloxy)-ethyl]-3-[3-(1,1,2,2-tetrafluoro-ethoxy)-phenyl]-8-(3-trifluoromethoxy-phenyl)-3,4-dihydro-2H-benzo[1,4]oxazine] | 13 |  | 
3 | OCCN1c2cccc(-c3cccc(OC(F)(F)F)c3)c2OCC1c1cccc(OC(F)(F)C(F)F)c1 (stereo not drawn) [Compound 23, 2-[3-[3-(1,1,2,2-Tetrafluoro-ethoxy)-phenyl]-8-(3-trifluoromethoxy-phenyl)-2,3-dihydro-benzo[1,4]oxazin-4-yl]-ethanol] | 29 |  | 
4 | COCCN1c2cccc(-c3cccc(OC(F)(F)F)c3)c2OCC1c1cccc(OC(F)(F)C(F)F)c1 (stereo not drawn) [Compound 24, 4-(2-Methoxy-ethyl)-3-[3-(1,1,2,2-tetrafluoro-ethoxy)-phenyl]-8-(3-trifluoromethoxy-phenyl)-3,4-dihydro-2H-benzo[1,4]oxazine] | 25 |  | 
5 | CC(C)(C)[Si](C)(C)OCCCN1c2cccc(-c3cccc(OC(F)(F)F)c3)c2OCC1c1cccc(OC(F)(F)C(F)F)c1 (stereo not drawn) [Compound 25, 4-[3-(tert-Butyl-dimethyl-silanyloxy)-propyl]-3-[3-(1,1,2,2-tetrafluoro-ethoxy)-phenyl]-8-(3-trifluoromethoxy-phenyl)-3,4-dihydro-2H-benzo[1,4]oxazine] | 13 |  | 
6 | OCCCN1c2cccc(-c3cccc(OC(F)(F)F)c3)c2OCC1c1cccc(OC(F)(F)C(F)F)c1 (stereo not drawn) [Compound 26, 3-[3-[3-(1,1,2,2-Tetrafluoro-ethoxy)-phenyl]-8-(3-trifluoromethoxy-phenyl)-2,3-dihydro-benzo[1,4]oxazin-4-yl]-propan-1-ol] | 10 |  | 
7 | COCCCN1c2cccc(-c3cccc(OC(F)(F)F)c3)c2OCC1c1cccc(OC(F)(F)C(F)F)c1 (stereo not drawn) [Compound 27, 4-(3-Methoxy-propyl)-3-[3-(1,1,2,2-tetrafluoro-ethoxy)-phenyl]-8-(3-trifluoromethoxy-phenyl)-3,4-dihydro-2H-benzo[1,4]oxazine] | 29 |  | 
8 | CN(C)CCN1c2cccc(-c3cccc(OC(F)(F)F)c3)c2OCC1c1cccc(OC(F)(F)C(F)F)c1 (stereo not drawn) [Compound 28, Dimethyl-{2-[3-[3-(1,1,2,2-tetrafluoro-ethoxy)-phenyl]-8-(3-trifluoromethoxy-phenyl)-2,3-dihydro-benzo[1,4]oxazin-4-yl]-ethyl}-amine] | 9 |  | 
9 | FC(F)C(F)(F)Oc1cccc(C2COc3c(-c4cccc(OC(F)(F)F)c4)cccc3N2CCN2CCOCC2)c1 (stereo not drawn) [Compound 29, 4-(2-Morpholin-4-yl-ethyl)-3-[3-(1,1,2,2-tetrafluoro-ethoxy)-phenyl]-8-(3-trifluoromethoxy-phenyl)-3,4-dihydro-2H-benzo[1,4]oxazine] | 0 |  | 
10 | FC(F)C(F)(F)Oc1cccc(C2COc3c(-c4cccc(OC(F)(F)F)c4)cccc3N2CCN2CCNCC2)c1 (stereo not drawn) [Compound 30, 4-(2-piperazin-1-yl-ethyl)-3-[3-(1,1,2,2-tetrafluoro-ethoxy)-phenyl]-8-(3-trifluoromethoxy-phenyl)-3,4-dihydro-2H-benzo[1,4]oxazine] | 0 |  | 
11 | CN1CCN(CCN2c3cccc(-c4cccc(OC(F)(F)F)c4)c3OCC2c2cccc(OC(F)(F)C(F)F)c2)CC1 (stereo not drawn) [Compound 31, 4-[2-(4-Methyl-piperazin-1-yl)-ethyl]-3-[3-(1,1,2,2-tetrafluoro-ethoxy)-phenyl]-8-(3-trifluoromethoxy-phenyl)-3,4-dihydro-2H-benzo[1,4]oxazine] | 17 |  | 
12 | CN1c2cccc(-c3cccc(OC(F)(F)F)c3)c2OCC1c1cccc(OC(F)(F)C(F)F)c1 (stereo not drawn) [Compound 32, 4-Methyl-3-[3-(1,1,2,2-tetrafluoro-ethoxy)-phenyl]-8-(3-trifluoromethoxy-phenyl)-3,4-dihydro-2H-benzo[1,4]oxazine] | 0 |  | 
13 | CCN1c2cccc(-c3cccc(OC(F)(F)F)c3)c2OCC1c1cccc(OC(F)(F)C(F)F)c1 (stereo not drawn) [Compound 33, 4-Ethyl-3-[3-(1,1,2,2-tetrafluoro-ethoxy)-phenyl]-8-(3-trifluoromethoxy-phenyl)-3,4-dihydro-2H-benzo[1,4]oxazine] | 24 |  | 
14 | CCCN1c2cccc(-c3cccc(OC(F)(F)F)c3)c2OCC1c1cccc(OC(F)(F)C(F)F)c1 (stereo not drawn) [Compound 34, 4-Propyl-3-[3-(1,1,2,2-tetrafluoro-ethoxy)-phenyl]-8-(3-trifluoromethoxy-phenyl)-3,4-dihydro-2H-benzo[1,4]oxazine] | 38 | 39 | 190 nM
15 | C[C@@H](O)CN1c2cccc(-c3cccc(OC(F)(F)F)c3)c2OC[C@@H]1c1cccc(OC(F)(F)C(F)F)c1 [Compound 35, 4H-1,4-Benzoxazine-4-ethanol, 2,3-dihydro-α-methyl-3-[3-(1,1,2,2-tetrafluoroethoxy)phenyl]-8-[3-(trifluoromethoxy)phenyl]-, (3S,αR)—] | 47 | 52 | 26 nM and 117 nM and 121 nM
16 | C[C@H](O)CN1c2cccc(-c3cccc(OC(F)(F)F)c3)c2OC[C@@H]1c1cccc(OC(F)(F)C(F)F)c1 [Compound 36, 4H-1,4-Benzoxazine-4-ethanol, 2,3-dihydro-α-methyl-3-[3-(1,1,2,2-tetrafluoroethoxy)phenyl]-8-[3-(trifluoromethoxy)phenyl]-, (3S,αS)—] | 28 |  | 
17 | O=C(CN1c2cccc(-c3cccc(OC(F)(F)F)c3)c2OC[C@@H]1c1cccc(OC(F)(F)C(F)F)c1)C(F)(F)F [Compound 37, 2-Propanone, 3-[(3S)-2,3-dihydro-3-[3-(1,1,2,2-tetrafluoroethoxy)phenyl]-8-[3-(trifluoromethoxy)phenyl]-4H-1,4-benzoxazin-4-yl]-1,1,1-trifluoro-] | 5 |  | 
18 | CC(=O)CN1c2cccc(-c3cccc(OC(F)(F)F)c3)c2OC[C@@H]1c1cccc(OC(F)(F)C(F)F)c1 [Compound 38, 2-Propanone, 1-[(3S)-2,3-dihydro-3-[3-(1,1,2,2-tetrafluoroethoxy)phenyl]-8-[3-(trifluoromethoxy)phenyl]-4H-1,4-benzoxazin-4-yl]-] | 5 |  | 
19 | NCCN1c2cccc(-c3cccc(OC(F)(F)F)c3)c2OCC1c1cccc(OC(F)(F)C(F)F)c1 (stereo not drawn) [Compound 39, 2-[3-[3-(1,1,2,2-Tetrafluoro-ethoxy)-phenyl]-8-(3-trifluoromethoxy-phenyl)-2,3-dihydro-benzo[1,4]oxazin-4-yl]-ethylamine] | 2 |  | 
20 | CC(=O)NCCN1c2cccc(-c3cccc(OC(F)(F)F)c3)c2OCC1c1cccc(OC(F)(F)C(F)F)c1 (stereo not drawn) [Compound 40, N-{2-[3-[3-(1,1,2,2-Tetrafluoro-ethoxy)-phenyl]-8-(3-trifluoromethoxy-phenyl)-2,3-dihydro-benzo[1,4]oxazin-4-yl]-ethyl}-acetamide] | 0 |  | 
